Measurements taken from EP4583874B1, “MULTITARGET NUCLEAR RECEPTOR LIGANDS BASED ON 2-(4-(QUINOLIN-2-YLOXY)PHENOXY)PROPANOIC ACID AND 2-(4-(QUINOXALIN-2-YLOXY)PHENOXY)PROPANOIC ACID FOR THE TREATMENT OF METABOLIC AND LIVER DISEASES” (CHARLES UNIVERSITY, FACULTY OF PHARMACY IN HRADEC KRALOVE, priority 2022, dated 2024).
Read-outs that look alike come from different tables or passages of the source.

What was measured:
Assay type in all cases: cell-based
human LXRα = target: T1, human LXRα (Homo sapiens, UniProt Q13133); assay: LXRα luciferase reporter gene assay, inhibition of activation by GW3965 (pGAL4-LXRα / pGL5-UAS 9x) in HepG2 cells
T1 construct: DNA constructs encoding human LBD domains of human PPARα, PPARγ, of LXRα (pGAL4-PPARα, pGAL4-PPARγ, pGAL4-LXRα); expressed in transfected cells; host or cells: HepG2
T1 sequence (Q13133 209-447 limits assumed): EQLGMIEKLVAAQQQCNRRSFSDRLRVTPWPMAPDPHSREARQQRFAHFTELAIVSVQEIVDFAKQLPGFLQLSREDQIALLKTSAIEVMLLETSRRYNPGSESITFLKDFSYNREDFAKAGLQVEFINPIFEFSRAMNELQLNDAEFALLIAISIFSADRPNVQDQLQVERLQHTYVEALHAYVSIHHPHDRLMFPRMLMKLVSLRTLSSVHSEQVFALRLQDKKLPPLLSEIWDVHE
Experimental: Bezafibrate, GW7647 and WY14643 are known PPARα ligands. […] GW3965 is known high-affinity LXRα ligand.
Inverse agonistic/antagonistic activities of tested compounds to LXRα receptor activated by the LXRα agonist GW3965(10 µM). […] Negative value indicates inverse agonism.
(§1) In HepG2 cells, luciferase gene reporter assays have been performed with the transiently transfected reporter gene luciferase construct with the UAS yeast binding site interacting with GAL4 protein (pGL5-UAS 9x, Promega). DNA constructs encoding human LBD domains of human PPARα, PPARγ, of LXRα (pGAL4-PPARα, pGAL4-PPARγ, pGAL4-LXRα) have been cotransfected with the reporter construct. For FXR, FXRE-luc construct with FXR response elements upstream of Firefly luciferase has been used together with an expression construct for human FXR for HepG2 cells transfection. HepG2 cells were then treated with compounds of the invention for 24 h.

human PPARα = target: T2, human PPARα (Homo sapiens, UniProt Q07869); assay: PPARα responsive luciferase reporter gene assay (pGAL4-PPARα / pGL5-UAS 9x) in HepG2 cells; settings: relative activation to fenofibrate 10 µM (100%), HepG2, 24 h, negative value indicates inverse agonism
T2 construct: DNA constructs encoding human LBD domains of human PPARα, PPARγ, of LXRα (pGAL4-PPARα, pGAL4-PPARγ, pGAL4-LXRα); expressed in transfected cells; host or cells: HepG2
T2 sequence (Q07869 239-466 limits assumed): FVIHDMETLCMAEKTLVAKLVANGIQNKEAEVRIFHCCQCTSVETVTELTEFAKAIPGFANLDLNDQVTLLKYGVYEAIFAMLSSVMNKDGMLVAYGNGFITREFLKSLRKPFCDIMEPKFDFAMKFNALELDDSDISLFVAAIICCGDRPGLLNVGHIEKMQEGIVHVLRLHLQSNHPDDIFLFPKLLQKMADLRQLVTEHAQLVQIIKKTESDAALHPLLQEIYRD
Source text: Bezafibrate, GW7647 and WY14643 are known PPARα ligands. […] GW3965 is known high-affinity LXRα ligand. […]
as §1

human FXR = target: T3, human FXR (Homo sapiens, UniProt Q96RI1); assay: FXR responsive luciferase reporter gene assay (FXRE-luc + human FXR expression construct) in HepG2 cells; settings: HepG2, 24 h
T3 construct: expressed in transfected cells; host or cells: HepG2
T3 sequence (Q96RI1 1-486): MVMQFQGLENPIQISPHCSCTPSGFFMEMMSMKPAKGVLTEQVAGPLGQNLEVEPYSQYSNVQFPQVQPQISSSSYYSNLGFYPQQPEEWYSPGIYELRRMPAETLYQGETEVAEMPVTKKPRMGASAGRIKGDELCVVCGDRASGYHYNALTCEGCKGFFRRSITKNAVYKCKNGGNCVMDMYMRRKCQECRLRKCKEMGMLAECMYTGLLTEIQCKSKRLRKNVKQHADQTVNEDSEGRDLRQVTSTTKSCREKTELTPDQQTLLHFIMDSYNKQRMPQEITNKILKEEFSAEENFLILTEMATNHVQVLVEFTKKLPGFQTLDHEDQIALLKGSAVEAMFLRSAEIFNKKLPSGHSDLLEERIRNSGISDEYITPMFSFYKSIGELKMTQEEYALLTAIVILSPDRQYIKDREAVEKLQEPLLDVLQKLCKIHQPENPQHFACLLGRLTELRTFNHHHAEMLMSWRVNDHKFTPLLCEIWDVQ
Source text: as §1

human PPARγ = target: T4, human PPARγ (Homo sapiens, UniProt P37231); assay: PPARγ luciferase reporter gene assay (pGAL4-PPARγ / pGL5-UAS 9x) in HepG2 cells; settings: HepG2, 24 h
T4 construct: DNA constructs encoding human LBD domains of human PPARα, PPARγ, of LXRα (pGAL4-PPARα, pGAL4-PPARγ, pGAL4-LXRα); expressed in transfected cells; host or cells: HepG2
T4 sequence (P37231 238-503 limits assumed): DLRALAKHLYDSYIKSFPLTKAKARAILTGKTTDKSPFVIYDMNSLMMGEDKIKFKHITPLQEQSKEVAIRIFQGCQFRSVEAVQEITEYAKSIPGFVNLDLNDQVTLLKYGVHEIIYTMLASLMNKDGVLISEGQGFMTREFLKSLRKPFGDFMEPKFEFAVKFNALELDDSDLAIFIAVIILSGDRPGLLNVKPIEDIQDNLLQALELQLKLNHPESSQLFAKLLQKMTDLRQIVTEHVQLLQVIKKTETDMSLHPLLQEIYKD

TGR5 = target: T5, TGR5 (Homo sapiens, UniProt Q8TDU6); assay: TGR5 luciferase reporter assay; settings: relative activation to LCA 10 µM (100%), negative value indicates inverse agonism
T5 sequence (Q8TDU6 1-330): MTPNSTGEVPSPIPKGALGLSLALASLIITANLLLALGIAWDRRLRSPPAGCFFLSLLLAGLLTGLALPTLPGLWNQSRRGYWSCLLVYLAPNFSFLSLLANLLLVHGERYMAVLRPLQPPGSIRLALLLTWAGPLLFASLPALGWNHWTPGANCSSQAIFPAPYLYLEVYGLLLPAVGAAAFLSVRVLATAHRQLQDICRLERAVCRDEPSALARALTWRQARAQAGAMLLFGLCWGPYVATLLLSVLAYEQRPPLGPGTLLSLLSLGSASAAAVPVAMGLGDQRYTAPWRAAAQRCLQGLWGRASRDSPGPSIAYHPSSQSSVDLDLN

[1] = HepG2, 24 h; read-out: LXRα antagonism

| Structure (SMILES) | inhibition at 10 µM (human LXRα; [1]) [%] | Emax at 10 µM (human PPARα) [%] | Emax at 10 µM (human FXR) [%] | Emax at 10 µM (human PPARγ) [%] | Emax at 10 µM (TGR5) [%] | inhibition at 10 µM (human LXRα; HepG2, 24 h, read-out: LXRα antagonism) [%] |
| --- | --- | --- | --- | --- | --- | --- |
| C[C@@H](Oc1ccc(Oc2ccc3c(Cl)cc(Cl)cc3n2)cc1)C(=O)O [compound 38, (R)-2-(4-((5,7-Dichloroquinolin-2-yl)oxy)phenoxy)propanoic acid] | 41 | 0 | 14 | 1 | 2 | – |
| CCc1ccc2ccc(Oc3ccc(O[C@H](C)C(=O)O)cc3)nc2c1 [compound 44, (R)-2-(4-((7-Ethylquinolin-2-yl)oxy)phenoxy)propanoic acid] | 7 | 0 | 15 | 4 | – | – |
| Cc1cc(C)c2ccc(Oc3ccc(O[C@H](C)C(=O)O)cc3)nc2c1 [compound 45, (R)-2-(4-((5,7-Dimethylquinolin-2-yl)oxy)phenoxy)propanoic acid] | 43 | 0 | 7 | 17 | – | – |
| CC(C)(Oc1ccc(Oc2ccc3ccc(Cl)cc3n2)cc1)C(=O)O [compound 55, 2-(4-((7-Chloroquinolin-2-yl)oxy)phenoxy)-2-methylpropanoic acid] | – | 1 | 0 | -2 | -15 | – |
| C[C@@H](Oc1ccc(Oc2cnc3ccc(Cl)cc3n2)cc1)C(=O)O [compound 63, (R)-2-(4-((7-Chloroquinoxalin-2-yl)oxy)phenoxy)propanoic acid] | – | 0 | -3 | 2 | 4 | – |
| C[C@@H](Oc1ccc(Oc2cnc3cc(Cl)ccc3n2)cc1)C(=O)O [compound 64, (R)-2-(4-((6-Chloroquinoxalin-2-yl)oxy)phenoxy)propanoic acid] | – | – | 1 | – | – | 17 |
| C[C@@H](Oc1ccc(Oc2cnc3ccc(Br)cc3n2)cc1)C(=O)O [compound 65, (R)-2-(4-((7-Bromoquinoxalin-2-yl)oxy)phenoxy)propanoic acid] | – | 69 | -2 | 2 | -3 | – |
| CC(=O)Nc1ccc2ncc(Oc3ccc(O[C@H](C)C(=O)O)cc3)nc2c1 [compound 69, (R)-2-(4-((7-Acetamidoquinoxalin-2-yl)oxy)phenoxy)propanoic acid] | – | 46 | 3 | 1 | – | – |
| CCOC(=O)[C@@H](C)Oc1ccc(Oc2ccc3c(Cl)cccc3n2)cc1 [compound 76, Ethyl (R)-2-(4-((5-chloroquinolin-2-yl)oxy)phenoxy)propanoate] | 51 | – | 25 | – | – | – |

Second part, led by results:

| inhibition at 10 µM (human LXRα; [1]) [%] | Emax at 10 µM (human PPARα) [%] | Emax at 10 µM (human FXR) [%] | Emax at 10 µM (human PPARγ) [%] | Emax at 10 µM (TGR5) [%] | Structure (SMILES) | inhibition at 10 µM (human LXRα; HepG2, 24 h, read-out: LXRα antagonism) [%] |
| --- | --- | --- | --- | --- | --- | --- |
| 36 | -5 | 19 | 23 | – | C[C@@H](Oc1ccc(Oc2ccc3cc(Cl)ccc3n2)cc1)C(=O)O [compound 36, (R)-2-(4-((6-Chloroquinolin-2-yl)oxy)phenoxy)propanoic acid] | – |
| 43 | 87 | 4 | 3 | 6 | C[C@@H](Oc1ccc(Oc2ccc3ccc(Br)cc3n2)cc1)C(=O)O [compound 39, (R)-2-(4-((7-Bromoquinolin-2-yl)oxy)phenoxy)propanoic acid] | – |
| – | 1 | 1 | 7 | – | C[C@@H](Oc1ccc(Oc2ccc3ccc(F)cc3n2)cc1)C(=O)O [compound 41, (R)-2-(4-((7-Fluoroquinolin-2-yl)oxy)phenoxy)propanoic acid] | – |
| 48 | -5 | 1 | -1 | – | C[C@@H](Oc1ccc(Oc2ccc3c(C(F)(F)F)cccc3n2)cc1)C(=O)O [compound 43, (R)-2-(4-((5-(Trifluoromethyl)quinolin-2-yl)oxy)phenoxy)propanoic acid] | – |
| – | 87 | 0 | – | – | C[C@@H](Oc1ccc(Oc2ccc3ccc([N+](=O)[O-])cc3n2)cc1)C(=O)O [compound 50, (R)-2-(4-((7-nitroquinolin-2-yl)oxy)phenoxy)propanoic acid] | – |
| – | 0 | 7 | 2 | 43 | C[C@@H](Oc1ccc(Oc2cnc3ccccc3n2)cc1)C(=O)O [compound 62] | – |
| – | 1 | -3 | 2 | – | Cc1ccc2ncc(Oc3ccc(O[C@H](C)C(=O)O)cc3)nc2c1 [compound 66, (R)-2-(4-((7-Methylquinoxalin-2-yl)oxy)phenoxy)propanoic acid] | – |
| – | 49 | -3 | 9 | 11 | C[C@@H](Oc1ccc(Oc2cnc3ccc(I)cc3n2)cc1)C(=O)O [compound 68, (R)-2-(4-((7-Iodoquinoxalin-2-yl)oxy)phenoxy)propanoic acid] | – |
| – | 10 | -2 | 0 | – | COc1ccc2ncc(Oc3ccc(O[C@H](C)C(=O)O)cc3)nc2c1 [compound 70, (R)-2-(4-((7-Methoxyquinoxalin-2-yl)oxy)phenoxy)propanoic acid] | – |
| – | 59 | 6 | 1 | 20 | CC(=O)Nc1ccc2ncc(Oc3ccc(OCC(=O)O)cc3)nc2c1 [compound 73, 2-(4-((7-Acetamidoquinoxalin-2-yl)oxy)phenoxy)acetic acid] | – |
| 66 | 0 | -1 | – | – | CC(Oc1ccc(Nc2cnc3ccc(Cl)cc3n2)cc1)C(=O)O (stereo not shown) [compound 80, 2-(4-((7-chloroquinoxalin-2-yl)amino)phenoxy)propanoic acid] | – |
| 5 | 0 | -2 | 1 | – | CC(Oc1ccc(NCc2ccc3c(Cl)cc(Cl)cc3n2)cc1)C(=O)O (stereo not shown) [compound 84, 2-(4-(((5,7-Dichloroquinolin-2-yl)methyl)amino)phenoxy)propanoic acid] | – |
| – | 1 | -1 | -6 | 30 | CCOC(=O)C(C)Oc1ccc(NCc2ccc3c(Cl)cccc3n2)cc1 (stereo not shown) [compound 85, Ethyl 2-(4-(((5-chloroquinolin-2-yl)methyl)amino)phenoxy)propanoate] | – |
